From patent US20100056596A1, “RESISTANCE-REPELLENT RETROVIRAL PROTEASE INHIBITORS” (Sequoia Pharmaceuticals, priority 2004, published 2010)
pIC50, pKi: −log10 of the molar value.

How the values were obtained:
wild type HIV-1 protease = target: T1, wild type HIV-1 protease (Human immunodeficiency virus type 1 group M subtype B, UniProt P04585); assay: Ki against wild type (WT) HIV-1 protease; assay type: biochemical
T1 construct: over 45 of the 99 amino acids of the HIV protease monomer

HIV-1 protease Mutant 8 = HIV-1 protease Mutant 8 (Human immunodeficiency virus type 1, UniProt P04585); assay: Ki against HIV-1 protease Mutant 8; assay type: biochemical
HIV-1 protease Mutant 9 = HIV-1 protease Mutant 9 (Human immunodeficiency virus type 1, UniProt P04585); assay: Ki against HIV-1 protease Mutant 9; assay type: biochemical
HIV-1 isolates, WT = assay: In vitro drug sensitivity of HIV-1 laboratory isolates, WT; assay type: cell-based; conditions: Human immunodeficiency virus 1
Protocol: (§1) In Vitro Drug Sensitivity of HIV-1 Laboratory Isolates to PIs
(§2) The sensitivities of HIV-1 isolates against compounds of the invention were determined as previously described with minor modifications (Shiraska et al., Proc. Natl. Acad. Sci. USA, 92, 2398-2402 (1995)).

HIV-1 isolates, Mutant 8 = assay: In vitro drug sensitivity of HIV-1 laboratory isolates, Mutant 8; assay type: cell-based; conditions: Human immunodeficiency virus 1, read-out: IC50 Mutant 8
Protocol: as §1, §2

HIV-1 isolates, Mutant 9 = assay: In vitro drug sensitivity of HIV-1 laboratory isolates, Mutant 9; assay type: cell-based; conditions: Human immunodeficiency virus 1, read-out: IC50 Mutant 9
Protocol: as §1, §2

CC(C)CN(CC(O)C(Cc1ccccc1)NC(=O)OC1COC2OCCC12)S(=O)(=O)c1ccc2onc(CS(C)(=O)=O)c2c1 (stereo not drawn) [Compound 243]
pKi (wild type HIV-1 protease; wild type HIV-1 protease): > 10.00
pKi (HIV-1 protease Mutant 8; HIV-1 protease Mutant 8): > 9.52
pKi (HIV-1 protease Mutant 9; HIV-1 protease Mutant 9): 9.02
pIC50 (HIV-1 isolates, WT; HIV-1 isolate WT): 8.09
pIC50 (HIV-1 isolates, Mutant 8): 7.62
pIC50 (HIV-1 isolates, Mutant 9): 6.92

COCc1noc2ccc(S(=O)(=O)N(CC(C)C)CC(O)C(Cc3ccccc3)NC(=O)OC3COC4OCCC34)cc12 (stereo not drawn) [Compound 244]
pKi (wild type HIV-1 protease; wild type HIV-1 protease): > 10.00
pKi (HIV-1 protease Mutant 8; HIV-1 protease Mutant 8): > 9.52
pKi (HIV-1 protease Mutant 9; HIV-1 protease Mutant 9): 9.31
pIC50 (HIV-1 isolates, WT; HIV-1 isolate WT): 8.39
pIC50 (HIV-1 isolates, Mutant 8): 7.40
pIC50 (HIV-1 isolates, Mutant 9): 6.52

CC(C)CN(CC(O)C(Cc1ccccc1)NC(=O)OC1COC2OCCC12)S(=O)(=O)c1ccc2onc(CNC(=O)C(F)(F)C(F)(F)F)c2c1 (stereo not drawn) [Compound 245]
pKi (wild type HIV-1 protease; wild type HIV-1 protease): > 10.00
pKi (HIV-1 protease Mutant 8; HIV-1 protease Mutant 8): > 9.52
pKi (HIV-1 protease Mutant 9; HIV-1 protease Mutant 9): 9.20
pIC50 (HIV-1 isolates, WT; HIV-1 isolate WT): 8.08
pIC50 (HIV-1 isolates, Mutant 8): 7.52
pIC50 (HIV-1 isolates, Mutant 9): 6.72

CC(C)CN(CC(O)C(Cc1ccccc1)NC(=O)OC1COC2OCCC12)S(=O)(=O)c1ccc2onc(COCC(F)(F)F)c2c1 (stereo not drawn) [Compound 246]
pKi (wild type HIV-1 protease; wild type HIV-1 protease): > 10.00
pKi (HIV-1 protease Mutant 8; HIV-1 protease Mutant 8): > 9.52
pKi (HIV-1 protease Mutant 9; HIV-1 protease Mutant 9): 8.96
pIC50 (HIV-1 isolates, WT; HIV-1 isolate WT): 8.57
pIC50 (HIV-1 isolates, Mutant 8): 8.17
pIC50 (HIV-1 isolates, Mutant 9): 6.98

CC(=O)N(Cc1noc2ccc(S(=O)(=O)N(CC(C)C)CC(O)C(Cc3ccccc3)NC(=O)OC3COC4OCCC34)cc12)CC(F)(F)F (stereo not drawn) [Compound 247]
pKi (wild type HIV-1 protease; wild type HIV-1 protease): > 10.00
pKi (HIV-1 protease Mutant 8; HIV-1 protease Mutant 8): > 9.52
pKi (HIV-1 protease Mutant 9; HIV-1 protease Mutant 9): 8.96
pIC50 (HIV-1 isolates, WT; HIV-1 isolate WT): 8.27
pIC50 (HIV-1 isolates, Mutant 8): 7.54
pIC50 (HIV-1 isolates, Mutant 9): < 6.40

CC(C)CN(CC(O)C(Cc1ccccc1)NC(=O)OC1COC2OCCC12)S(=O)(=O)c1ccc2onc(CNCc3ccc4occc4c3)c2c1 (stereo not drawn) [Compound 248]
pKi (wild type HIV-1 protease; wild type HIV-1 protease): > 10.00
pKi (HIV-1 protease Mutant 8; HIV-1 protease Mutant 8): > 9.52
pKi (HIV-1 protease Mutant 9; HIV-1 protease Mutant 9): 9.48
pIC50 (HIV-1 isolates, WT; HIV-1 isolate WT): 8.10
pIC50 (HIV-1 isolates, Mutant 8): 7.62
pIC50 (HIV-1 isolates, Mutant 9): 7.27

Cc1n[nH]c2ccc(S(=O)(=O)N(CC(C)C)CC(O)C(Cc3ccccc3)NC(=O)OC3COC4OCCC34)cc12 (stereo not drawn) [Compound 301, {1-Benzyl-2-hydroxy-3-[isobutyl-(3-methyl-1H-indazole-5-sulfonyl)-amino]-propyl}-carbamic acid hexahydro-furo[2,3-b]furan-3-yl ester]
pKi (wild type HIV-1 protease; WT): > 10.00
pKi (HIV-1 protease Mutant 8; Mutant 8): > 9.52
pKi (HIV-1 protease Mutant 9; Mutant 9): 9.64
pIC50 (HIV-1 isolates, WT): 8.10
pIC50 (HIV-1 isolates, Mutant 8): 7.15
pIC50 (HIV-1 isolates, Mutant 9): 7.10

CCCC(C)Nc1n[nH]c2ccc(S(=O)(=O)N(CC(C)C)CC(O)C(Cc3ccccc3)NC(=O)OC3COC4OCCC34)cc12 (stereo not drawn) [Compound 303]
pKi (wild type HIV-1 protease; WT): > 10.00
pKi (HIV-1 protease Mutant 8; Mutant 8): > 9.52
pKi (HIV-1 protease Mutant 9; Mutant 9): 9.14
pIC50 (HIV-1 isolates, WT): 8.00
pIC50 (HIV-1 isolates, Mutant 8): 7.74
pIC50 (HIV-1 isolates, Mutant 9): 6.82

CC(C)CN(CC(O)C(Cc1ccccc1)NC(=O)OC1COC2OCCC12)S(=O)(=O)c1ccc2[nH]nc(NC3CCCCC3)c2c1 (stereo not drawn) [Compound 304]
pKi (wild type HIV-1 protease; WT): > 10.00
pKi (HIV-1 protease Mutant 8; Mutant 8): > 9.52
pKi (HIV-1 protease Mutant 9; Mutant 9): 9.03
pIC50 (HIV-1 isolates, WT): 8.21
pIC50 (HIV-1 isolates, Mutant 8): 7.92
pIC50 (HIV-1 isolates, Mutant 9): 7.00

CCCNc1n[nH]c2ccc(S(=O)(=O)N(CC(C)C)CC(O)C(Cc3ccccc3)NC(=O)OC3COC4OCCC34)cc12 (stereo not drawn) [Compound 305]
pKi (wild type HIV-1 protease; WT): > 10.00
pKi (HIV-1 protease Mutant 8; Mutant 8): > 9.52
pKi (HIV-1 protease Mutant 9; Mutant 9): 9.18
pIC50 (HIV-1 isolates, WT): 7.80
pIC50 (HIV-1 isolates, Mutant 8): 7.52
pIC50 (HIV-1 isolates, Mutant 9): 6.74

CC(C)CN(CC(O)C(Cc1ccccc1)NC(=O)OC1COC2OCCC12)S(=O)(=O)c1ccc2[nH]nc(NCc3ccccc3)c2c1 (stereo not drawn) [Compound 306]
pKi (wild type HIV-1 protease; WT): 10.00
pKi (HIV-1 protease Mutant 8; Mutant 8): > 9.52
pKi (HIV-1 protease Mutant 9; Mutant 9): 8.96
pIC50 (HIV-1 isolates, WT): 8.26
pIC50 (HIV-1 isolates, Mutant 8): 7.46
pIC50 (HIV-1 isolates, Mutant 9): 7.02

CCC(CC)Nc1n[nH]c2ccc(S(=O)(=O)N(CC(C)C)CC(O)C(Cc3ccccc3)NC(=O)OC3COC4OCCC34)cc12 (stereo not drawn) [Compound 307]
pKi (wild type HIV-1 protease; WT): > 10.00
pKi (HIV-1 protease Mutant 8; Mutant 8): > 9.52
pKi (HIV-1 protease Mutant 9; Mutant 9): 9.26
pIC50 (HIV-1 isolates, WT): 8.12
pIC50 (HIV-1 isolates, Mutant 8): 7.62
pIC50 (HIV-1 isolates, Mutant 9): 6.96

CCCCNc1n[nH]c2ccc(S(=O)(=O)N(CC(C)C)CC(O)C(Cc3ccccc3)NC(=O)OC3COC4OCCC34)cc12 (stereo not drawn) [Compound 308]
pKi (wild type HIV-1 protease; WT): > 10.00
pKi (HIV-1 protease Mutant 8; Mutant 8): > 9.52
pKi (HIV-1 protease Mutant 9; Mutant 9): 8.74
pIC50 (HIV-1 isolates, WT): 8.10
pIC50 (HIV-1 isolates, Mutant 8): 7.52
pIC50 (HIV-1 isolates, Mutant 9): 6.51

CC(C)CN(CC(O)C(Cc1ccccc1)NC(=O)OC1COC2OCCC12)S(=O)(=O)c1ccc2[nH]nc(NCC(C)(C)C)c2c1 (stereo not drawn) [Compound 309]
pKi (wild type HIV-1 protease; WT): 9.89
pKi (HIV-1 protease Mutant 8; Mutant 8): > 9.52
pKi (HIV-1 protease Mutant 9; Mutant 9): 8.46
pIC50 (HIV-1 isolates, WT): 8.40
pIC50 (HIV-1 isolates, Mutant 8): 7.60
pIC50 (HIV-1 isolates, Mutant 9): 6.60

CCOC(=O)CNc1n[nH]c2ccc(S(=O)(=O)N(CC(C)C)CC(O)C(Cc3ccccc3)NC(=O)OC3COC4OCCC34)cc12 (stereo not drawn) [Compound 310]
pKi (wild type HIV-1 protease; WT): > 10.00
pKi (HIV-1 protease Mutant 8; Mutant 8): > 9.52
pKi (HIV-1 protease Mutant 9; Mutant 9): 9.72
pIC50 (HIV-1 isolates, WT): 7.30
pIC50 (HIV-1 isolates, Mutant 8): 7.15
pIC50 (HIV-1 isolates, Mutant 9): 7.22
